Results reported in PubChem BioAssay (NCI).
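Test compounds were applied to cells in 96-well plates for 48 hours at 5 doses. GI50: concentration for 50% inhibition of growth. At the TGI there is no net growth.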

Key:
Assay in all cases: NCI-60 cell line screen, 48 h
[1] = tested on: DMS 114 small cell lung
[2] = tested on: SF-539 CNS
[3] = tested on: HCC-2998 colon
[4] = tested on: NCI-H460 lung
[5] = tested on: CAKI-1 renal
[6] = tested on: SNB-78 CNS
[7] = tested on: MALME-3M melanoma
[8] = tested on: COLO 205 colon
[9] = tested on: SK-OV-3 ovarian
[10] = tested on: HCT-15 colon

With CC(=O)c1ccc(NC(=O)COC(=O)c2cccc3c(=O)c4ccccc4[nH]c23)cc1 the TGI [1] was > 100 µM, the TGI [2] was 33.9 µM and the TGI [3] was > 100 µM. The TGI [4] was > 100 µM, the TGI [5] was > 100 µM and the TGI [6] was > 100 µM. For the same compound, the TGI [7] was > 100 µM, the TGI [8] was > 100 µM and the TGI [9] was > 100 µM.

In the case of CCCCCCCCCCCc1c(O)c(=O)c2c(oc3c(=O)c(CCCCCCCCCCC)c(O)c(=O)c3n2-c2ccc(N(C)C)cc2)c1=O, the TGI [10] is reported as 35.6 µM, the TGI [1] is reported as 57.7 µM and the TGI [2] is reported as 39.7 µM. The TGI [4] was 36.1 µM, the TGI [5] was 39.7 µM and the TGI [6] was > 100 µM. The TGI [7] was 37.9 µM, the TGI [8] was 38.1 µM and the TGI [9] was 37.9 µM.

Work on Cc1c2c(c(C)c3c1[nH]c1ccccc13)CN(C)CC2 yielded a TGI [10] of 31 µM, a TGI [1] of 28.5 µM and a TGI [2] of 27.6 µM. For the same compound, the TGI [3] was 31.2 µM, the TGI [4] was 35.5 µM and the TGI [5] was 27.4 µM. For the same compound, the TGI [6] was 55.9 µM, the TGI [7] was 30.3 µM and the TGI [8] was 28.6 µM. The TGI [9] was 70.1 µM.

In the case of NC(=O)NC1C(C(=O)O)N(Cc2ccccc2)C(=O)N1Cc1ccccc1 (configuration not stated), the TGI [10] is reported as > 100 µM, the TGI [1] is reported as > 100 µM and the TGI [2] is reported as > 100 µM. The TGI [3] was > 100 µM, the TGI [4] was > 100 µM and the TGI [5] was > 100 µM. The TGI [6] was > 100 µM, the TGI [7] was > 100 µM and the TGI [8] was > 100 µM. For the same compound, the TGI [9] was > 100 µM.

For COc1ccc(C(=O)C#Cc2c[nH]c(=O)[nH]c2=O)cc1, the TGI [10] was 20.9 µM, the TGI [1] was 46.7 µM and the TGI [2] was 19.3 µM. It also gave a TGI [3] of 36.4 µM, a TGI [4] of 73.9 µM and a TGI [5] of 24.8 µM. The TGI [6] was 37.9 µM, the TGI [7] was 18.7 µM and the TGI [8] was 24.8 µM. For the same compound, the TGI [9] was > 100 µM.

In the case of CC1OC(CC(=O)O)CC2=C1C(=O)c1c(O)cccc1C2=O (configuration not stated), the TGI [10] is reported as 0.183 µM, the TGI [1] is reported as 0.288 µM and the TGI [2] is reported as 2.43 µM. For the same compound, the TGI [3] was 1.69 µM, the TGI [4] was 3.58 µM and the TGI [5] was 0.334 µM. The TGI [6] was 0.383 µM, the TGI [7] was 0.495 µM and the TGI [8] was 0.169 µM. It also gave a TGI [9] of 12.7 µM.

With COCCOCCOCCOc1cccc2c1C(=O)c1cccc(OCCOCCOCCOC)c1C2=O the TGI [10] was > 100 µM, the TGI [1] was > 100 µM and the TGI [2] was > 100 µM. The TGI [3] was > 100 µM, the TGI [4] was > 100 µM and the TGI [5] was > 100 µM. For the same compound, the TGI [6] was > 100 µM, the TGI [8] was > 100 µM and the TGI [9] was > 100 µM.

For CC1=Nc2c([nH]c(=S)[nH]c2=O)NC(c2c(Cl)cccc2Cl)C1 (configuration not stated), the TGI [10] was 8.67 µM, the TGI [1] was 13.8 µM and the TGI [2] was 4.2 µM. It also gave a TGI [3] of 22.9 µM, a TGI [4] of 5.64 µM and a TGI [5] of 14.8 µM. It also gave a TGI [6] of 25 µM, a TGI [7] of 12.9 µM and a TGI [8] of 4.34 µM. For the same compound, the TGI [9] was 18.1 µM.

For O=C(NCCCl)SCCO, the TGI [10] was > 100 µM, the TGI [1] was > 100 µM and the TGI [2] was > 100 µM. The TGI [3] was > 100 µM, the TGI [4] was > 100 µM and the TGI [6] was > 100 µM. The TGI [7] was > 100 µM, the TGI [8] was > 100 µM and the TGI [9] was > 100 µM.

COc1cccc(N2C(=O)C3C4C=C5c6ccccc6N(c6ccccc6)C5(C3C2=O)[C@H]2C(=O)N(c3cccc(OC)c3)C(=O)[C@@H]42)c1 (some centres not stated) was tested, and the TGI [10] was > 100 µM, the TGI [1] was > 100 µM and the TGI [2] was > 100 µM. The TGI [4] was > 100 µM, the TGI [5] was > 100 µM and the TGI [6] was > 100 µM. The TGI [7] was > 100 µM, the TGI [8] was > 100 µM and the TGI [9] was > 100 µM.

Compound COc1cc(C)c2sc3ccccc3c(=O)c2c1NCCN(C)C has a GI50 [10] of 3.13 µM, a TGI [10] of 11.2 µM and a GI50 [2] of 4.73 µM. It also gave a TGI [2] of 17.4 µM, a GI50 [3] of 2.99 µM and a TGI [3] of 9.03 µM. It also gave a GI50 [4] of 3.26 µM, a TGI [4] of 12.3 µM and a GI50 [5] of 5.87 µM. It also gave a TGI [5] of 19.4 µM, a GI50 [7] of 2.11 µM and a TGI [7] of 5.39 µM. The GI50 [8] was 1.86 µM, the TGI [8] was 3.51 µM and the GI50 [9] was 10.9 µM. For the same compound, the TGI [9] was 23.6 µM.

For CCOC(=O)Nc1cc2ccccc2c(N=Nc2ccccc2)c1O, the TGI [10] was > 100 µM, the TGI [2] was 35.8 µM and the TGI [3] was > 100 µM. The TGI [4] was > 100 µM, the TGI [5] was > 100 µM and the TGI [7] was > 100 µM. The TGI [8] was > 100 µM and the TGI [9] was > 100 µM.

For CC([O-])=C1C(=O)c2ccccc2C1=O.CC([O-])=C1C(=O)c2ccccc2C1=O.CC[O-].CC[O-].[Ti+4], the GI50 [10] was > 100 µM, the TGI [10] was > 100 µM and the GI50 [1] was > 100 µM. The TGI [1] was > 100 µM, the GI50 [2] was > 100 µM and the TGI [2] was > 100 µM. The GI50 [3] was > 100 µM, the TGI [3] was > 100 µM and the GI50 [4] was > 100 µM. For the same compound, the TGI [4] was > 100 µM, the GI50 [5] was 59.5 µM and the TGI [5] was > 100 µM. The GI50 [7] was > 100 µM, the TGI [7] was > 100 µM and the GI50 [8] was 91.7 µM. The TGI [8] was > 100 µM, the GI50 [9] was > 100 µM and the TGI [9] was > 100 µM.

With O=C1CCCCC12CCC/C2=N\O (configuration not stated) the TGI [10] was > 100 µM, the TGI [1] was > 100 µM and the TGI [2] was > 100 µM. The TGI [3] was > 100 µM, the TGI [4] was > 100 µM and the TGI [5] was > 100 µM. For the same compound, the TGI [6] was > 100 µM, the TGI [7] was > 100 µM and the TGI [8] was > 100 µM. For the same compound, the TGI [9] was > 100 µM.
